Data reported in patent US8901118B2, “Compounds and methods for kinase modulation, and indications therefor” (Plexxikon Inc., priority 2010, dated 2014).

What was measured:
BCR-NTRK3 BaF3 cells = target: T1, BCR-NTRK3 BaF3 cells (Homo sapiens, UniProt Q16288); assay: BaF3 BCR-NTRK3 cell proliferation assay (ATPlite); assay type: cell-based; settings: read-out: Inhibition of Cell Proliferation IC50, BCR/BaF3 TrkC
T1 construct: fused on or other part: P11274 (Breakpoint cluster region protein)
Outline: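 Cells are plated overnight: BaF3 at 10,000/well in G418 medium without WEHI/IL-3, MV-4-11 at 25,000/well in IMDM with 10% FBS. An 8-point 1:3 compound titration (10 μM top) is then added, and plates are incubated 3 days at 37 °C before ATPlite readout and IC50 determination.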

MV-4-11 cells = assay: MV-4-11 (leukemia) cell proliferation assay (ATPlite); assay type: cell-based; settings: Homo sapiens, MV4-11, read-out: Inhibition of Cell Proliferation IC50, MV-4-11
Protocol: Compounds are assessed in a variety of cell based assays. For example BaF3 cells engineered with any of BCR-FMS, BCR-KIT, BCR-FLT3, BCR-NTRK1, BCR-NTRK2, and BCR-NTRK3, are used in cell proliferation assays to assess inhibitory activity of Fms, Kit, Flt-3, TrkA, TrkB, and TrkC, respectively. An MV-4-11 (leukemia) cell proliferation assay is used to assess inhibitory activity in Flt-3, and SKNSH (human neuroblastoma) cell proliferation assay is used to assess efficacy of Fms/Trk inhibitors. Additional cells may be assayed similarly to assess the efficacy of Fms/Trk inhibitors, such as MiaPaCa (human pancreatic cancer) and Capan-1 (human pancreatic carcinoma) cells. Reagent and assay conditions are as follows: • BaF3 cells: • Maintained in RPMI containing 10% FBS, 1% PenStrep, 1% NEAA, and 1% L-Glutamine, supplemented with 1 mg/mL G418 and 5% WEHI-CM (or recombinant murine IL-3). • Confluent cells are split 1:50 to 1:100 every 3-4 days. • MV-4-11 cells: • Maintained in Iscove's Modified Dulbecco's Medium containing 10% FBS. • Confluent cells are split 1:4 every 3-4 days. • SKNSH cells: RPMI containing 10% FBS. On day 1, cells are counted, then centrifuged in a conical tube for 5 minutes at 1000 rpm. The supernatant is removed and cells are re-suspended as follows: • BaF3: resuspend in growth media +1 mg/mL G418 (without WEHFIL-3) to 2×10^5 cells/mL. • MV-4-11: resuspend in growth media to 5×10^5 cells/mL. • SKNSH: resuspend in growth media to 2×10^4 cells/mL. The cells are plated (50 μL, 150 μL for SKNSH cells) in each well of a 96-well dish (Corning 3610) and incubated at 37° C. in 5% CO2 overnight, cells plated to a final concentration of cells as follows: • BaF3: 10,000 cells per well. • MV-4-11: 25,000 cells per well. • SKNSH: 3,000 cells per well. On day 2, compound at a maximum concentration of 5 mM is serially diluted 1:3 for a total of 8 point titration with DMSO as a control. A 1 μL aliquot of each dilution point is added to 249 μL growth media and 50 μL is added to a well containing cells, providing 10 μM compound for the maximum concentration point. The cells are incubated for 3 days at 37° C. in 5% CO2. For SKNSH cells, a 0.75 μL aliquot of appropriate dilution in DMSO is added to 150 μL of cells. On day 5, ATPlite 1 step Luminescence Assay System (Perkin Elmer #6016739) is brought to room temperature along with the cell cultures. ATPlite is added to each well as follows: • BaF3: 25 μL per well. • MV-4-11: 40 μL per well. • SKNSH: 20 μL per well. The cells are incubated at room temperature for 10 minutes, then luminescence is read on Safire reader. The measured luminescence correlates directly with cell number, such that the reading as a function of compound concentration is used to determine the IC50 value.
It is understood that the results of these assays may vary as assay conditions are varied. Inhibition levels determined under the conditions described herein represent a relative activity for the compounds tested under the specific conditions employed. The cell based assays are likely to show variability due to the complexity of the system and the sensitivity thereof to any changes in the assay conditions. […] Results for compounds that are tested and show substantially no inhibition below the highest tested concentration are represented as “-” in the tables below. In some instances, the compounds were not tested in all of the assays, or assay results were not valid, as indicated by NA in the tables below.

[1] = Relative solubility by turbidity in aqueous buffers (pH 1.5, 4.5, 6.8, 7.4); assay type: physicochemical; settings: for turbidity threshold (L, M, H) 1.4: pH 1.5 (SGF); for turbidity threshold (L, M, H) 4.5: pH 4.5 (SIF); for turbidity threshold (L, M, H) 6.8: pH 6.8 (SIF); for turbidity threshold (L, M, H) 7.4: pH 7.4 (HEPES)
Outline: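 Reported value: concentration at which optical density at 490, 535 and 650 nm passes 0.01, taken as the mean of the three wavelengths. Buffers were 0.5M NaCl pH 1.5, 0.05M NaH2PO4 pH 4.5 or 6.8, and 10 mM HEPES/150 mM NaCl pH 7.4, each receiving serial 1:1 DMSO dilutions of a 25 mM stock.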

T1 sequence (Q16288 whole entry, the tested form may be a part): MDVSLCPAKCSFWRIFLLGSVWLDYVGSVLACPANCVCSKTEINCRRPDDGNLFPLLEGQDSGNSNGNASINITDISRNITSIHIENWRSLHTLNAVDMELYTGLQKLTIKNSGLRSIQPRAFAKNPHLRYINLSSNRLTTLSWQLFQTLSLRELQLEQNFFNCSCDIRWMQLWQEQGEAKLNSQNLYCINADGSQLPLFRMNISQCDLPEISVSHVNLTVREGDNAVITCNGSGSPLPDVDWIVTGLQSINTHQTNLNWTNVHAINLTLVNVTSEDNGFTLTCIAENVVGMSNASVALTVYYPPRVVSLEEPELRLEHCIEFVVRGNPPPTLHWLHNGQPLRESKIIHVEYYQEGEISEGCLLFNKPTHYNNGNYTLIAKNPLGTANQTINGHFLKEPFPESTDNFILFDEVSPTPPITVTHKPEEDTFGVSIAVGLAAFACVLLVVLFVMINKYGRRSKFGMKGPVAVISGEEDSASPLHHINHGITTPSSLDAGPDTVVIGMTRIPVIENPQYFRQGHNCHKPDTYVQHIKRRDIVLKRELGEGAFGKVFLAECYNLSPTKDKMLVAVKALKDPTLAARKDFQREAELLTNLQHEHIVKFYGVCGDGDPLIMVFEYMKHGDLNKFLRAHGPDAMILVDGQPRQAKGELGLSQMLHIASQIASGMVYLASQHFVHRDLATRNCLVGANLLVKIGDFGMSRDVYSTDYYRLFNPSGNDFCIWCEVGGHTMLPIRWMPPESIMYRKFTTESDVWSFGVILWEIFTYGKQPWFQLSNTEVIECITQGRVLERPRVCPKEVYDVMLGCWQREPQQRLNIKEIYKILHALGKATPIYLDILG

| IC50 (BCR-NTRK3 BaF3 cells) | IC50 (MV-4-11 cells) | Compound | turbidity threshold (L, M, H) 1.4 [1] | turbidity threshold (L, M, H) 4.5 [1] | turbidity threshold (L, M, H) 6.8 [1] | turbidity threshold (L, M, H) 7.4 [1] |
| --- | --- | --- | --- | --- | --- | --- |
| < 100 nM | < 1000 nM | COc1ncnc2[nH]cc(Cc3ccc(Nc4ccc(Cl)nc4)nc3F)c12 [Compound P-4003, (6-Chloro-pyridin-3-yl)-[6-fluoro-5-(4-methoxy-7H-pyrrolo[2,3-d]pyrimidin-5-ylmethyl)-pyridin-2-yl]-amine] | M (moderate solubility if the threshold concentration is 31.3 μM to 250 μM) | M (moderate solubility if the threshold concentration is 31.3 μM to 250 μM) | M (moderate solubility if the threshold concentration is 31.3 μM to 250 μM) | M (moderate solubility if the threshold concentration is 31.3 μM to 250 μM) |
| < 10 nM | < 1000 nM | COc1ncnc2[nH]cc(Cc3ccc(Nc4ccc(C5CC5)nc4)nc3F)c12 [Compound P-4004, (6-Cyclopropyl-pyridin-3-yl)-[6-fluoro-5-(4-methoxy-7H-pyrrolo[2,3-d]pyrimidin-5-ylmethyl)-pyridin-2-yl]-amine] | M (moderate solubility if the threshold concentration is 31.3 μM to 250 μM) | M (moderate solubility if the threshold concentration is 31.3 μM to 250 μM) | L (low solubility if the threshold concentration is <31.3 μM) | L (low solubility if the threshold concentration is <31.3 μM) |
| < 10 nM | < 1000 nM | CCOc1ccc(Nc2ccc(Cc3c[nH]c4ncnc(OC)c34)c(F)n2)cn1 [Compound P-4005, (6-Ethoxy-pyridin-3-yl)-[6-fluoro-5-(4-methoxy-7H-pyrrolo[2,3-d]pyrimidin-5-ylmethyl)-pyridin-2-yl]-amine] | M (moderate solubility if the threshold concentration is 31.3 μM to 250 μM) | L (low solubility if the threshold concentration is <31.3 μM) | L (low solubility if the threshold concentration is <31.3 μM) | L (low solubility if the threshold concentration is <31.3 μM) |
| < 10 nM | < 100 nM | CCOc1ccc(Nc2ccc(Cc3c[nH]c4ncnc(C)c34)c(F)n2)cn1 [Compound P-4006, (6-Ethoxy-pyridin-3-yl)-[6-fluoro-5-(4-methyl-7H-pyrrolo[2,3-d]pyrimidin-5-ylmethyl)-pyridin-2-yl]-amine] | H (high solubility if the threshold concentration is >250 μm) | L (low solubility if the threshold concentration is <31.3 μM) | L (low solubility if the threshold concentration is <31.3 μM) | L (low solubility if the threshold concentration is <31.3 μM) |
| < 10 nM | < 1000 nM | CCc1ccc(Nc2ccc(Cc3c[nH]c4ncnc(OC)c34)c(F)n2)cn1 [Compound P-4007, (6-Ethyl-pyridin-3-yl)-[6-fluoro-5-(4-methoxy-7H-pyrrolo[2,3-d]pyrimidin-5-ylmethyl)-pyridin-2-yl]-amine] | M (moderate solubility if the threshold concentration is 31.3 μM to 250 μM) | L (low solubility if the threshold concentration is <31.3 μM) | L (low solubility if the threshold concentration is <31.3 μM) | L (low solubility if the threshold concentration is <31.3 μM) |
| < 100 nM | < 100 nM | CCOc1ccc(Nc2ccc(Cc3c[nH]c4ncnc(OCCOC)c34)c(F)n2)cn1 [Compound P-4008, (6-Ethoxy-pyridin-3-yl)-{6-fluoro-5-[4-(2-methoxy-ethoxy)-7H-pyrrolo[2,3-d]pyrimidin-5-ylmethyl]-pyridin-2-yl}-amine] | M (moderate solubility if the threshold concentration is 31.3 μM to 250 μM) | M (moderate solubility if the threshold concentration is 31.3 μM to 250 μM) | M (moderate solubility if the threshold concentration is 31.3 μM to 250 μM) | M (moderate solubility if the threshold concentration is 31.3 μM to 250 μM) |
| < 10 nM | < 100 nM | CCc1ccc(Nc2ccc(Cc3c[nH]c4ncnc(C)c34)c(F)n2)cn1 [Compound P-4009, (6-Ethyl-pyridin-3-yl)-[6-fluoro-5-(4-methyl-7H-pyrrolo[2,3-d]pyrimidin-5-ylmethyl)-pyridin-2-yl]-amine] | H (high solubility if the threshold concentration is >250 μm) | M (moderate solubility if the threshold concentration is 31.3 μM to 250 μM) | L (low solubility if the threshold concentration is <31.3 μM) | L (low solubility if the threshold concentration is <31.3 μM) |
| < 100 nM | < 1000 nM | COc1ncnc2[nH]cc(Cc3ccc(Nc4ccc(C)nc4)nc3F)c12 [Compound P-4010, [6-Fluoro-5-(4-methoxy-7H-pyrrolo[2,3-d]pyrimidin-5-ylmethyl)-pyridin-2-yl]-(6-methyl-pyridin-3-yl)-amine] | H (high solubility if the threshold concentration is >250 μm) | M (moderate solubility if the threshold concentration is 31.3 μM to 250 μM) | L (low solubility if the threshold concentration is <31.3 μM) | L (low solubility if the threshold concentration is <31.3 μM) |
| < 1000 nM | < 1000 nM | CCn1cc(Nc2ccc(Cc3c[nH]c4ncnc(OC)c34)c(F)n2)cn1 [Compound P-4011, (1-Ethyl-1H-pyrazol-4-yl)-[6-fluoro-5-(4-methoxy-7H-pyrrolo[2,3-d]pyrimidin-5-ylmethyl)-pyridin-2-yl]-amine] | M (moderate solubility if the threshold concentration is 31.3 μM to 250 μM) | M (moderate solubility if the threshold concentration is 31.3 μM to 250 μM) | M (moderate solubility if the threshold concentration is 31.3 μM to 250 μM) | M (moderate solubility if the threshold concentration is 31.3 μM to 250 μM) |
| < 100 nM | < 1000 nM | CCOc1ncnc2[nH]cc(Cc3ccc(Nc4cnn(CC)c4)nc3F)c12 [Compound P-4012, [5-(4-Ethoxy-7H-pyrrolo[2,3-d]pyrimidin-5-ylmethyl)-6-fluoro-pyridin-2-yl]-(1-ethyl-1H-pyrazol-4-yl)-amine] | M (moderate solubility if the threshold concentration is 31.3 μM to 250 μM) | L (low solubility if the threshold concentration is <31.3 μM) | L (low solubility if the threshold concentration is <31.3 μM) | L (low solubility if the threshold concentration is <31.3 μM) |
